In patent US20150284331A1 (priority 2012, published 2015):

Tests used:
butyrylcholinesterase = target: T1, butyrylcholinesterase (Rattus norvegicus, UniProt Q9JKC1); assay: inhibition of butyrylcholinesterase (rat serum); type: biochemical; conditions: rat serum enzyme; final concentration 4×10−5 mol/L
T1 construct: Butyrylcholinesterase: rat serum; from tissue; host or cells: rat serum
Protocol: (§1) Sample processing: All samples were formulated as 10-2 mol/L solution by using 100% DMSO. 10-2 mol/L solution was used in microdetermination. 1 μL was taken to use in single tube experiment.
(§2) Solvent control: 0.4% DMSO was used in microdetermination. The inhibition ratio of the sample was obtained wherein the effect of solvent was deducted.
Butyrylcholinesterase: rat serum

acetylcholinesterase = target: T2, acetylcholinesterase (Rattus norvegicus, UniProt P37136); assay: biochemical; type: biochemical; conditions: rat cortex enzyme; for acetylcholinesterase inhibitory activity inhibition ratio (%): final concentration 4×10−5 mol/L; for IC50: read-out: acetylcholinesterase inhibitory activity IC50 (nmol)
T2 construct: Acetylcholinesterase: rat cortex; from tissue; host or cells: rat cortex
T2 sequence (P37136 32-614): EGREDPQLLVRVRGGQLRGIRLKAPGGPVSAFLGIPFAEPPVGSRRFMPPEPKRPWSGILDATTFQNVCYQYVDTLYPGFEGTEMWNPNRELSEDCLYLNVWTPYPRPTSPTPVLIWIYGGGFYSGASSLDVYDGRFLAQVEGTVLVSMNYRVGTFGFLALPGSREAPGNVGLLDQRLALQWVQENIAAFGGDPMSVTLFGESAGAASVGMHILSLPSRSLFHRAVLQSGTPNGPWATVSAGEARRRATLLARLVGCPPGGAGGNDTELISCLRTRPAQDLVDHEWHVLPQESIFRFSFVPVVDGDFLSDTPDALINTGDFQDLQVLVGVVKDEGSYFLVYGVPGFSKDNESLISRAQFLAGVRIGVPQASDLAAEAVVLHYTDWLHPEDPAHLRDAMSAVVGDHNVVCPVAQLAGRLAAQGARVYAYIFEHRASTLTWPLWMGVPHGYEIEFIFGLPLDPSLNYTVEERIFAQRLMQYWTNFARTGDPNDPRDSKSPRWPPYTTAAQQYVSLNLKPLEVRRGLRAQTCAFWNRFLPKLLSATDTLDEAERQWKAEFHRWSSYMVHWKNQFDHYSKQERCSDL
Protocol: as §1, §2
Acetylcholinesterase: rat cortex

T1 sequence (Q9JKC1 24-597): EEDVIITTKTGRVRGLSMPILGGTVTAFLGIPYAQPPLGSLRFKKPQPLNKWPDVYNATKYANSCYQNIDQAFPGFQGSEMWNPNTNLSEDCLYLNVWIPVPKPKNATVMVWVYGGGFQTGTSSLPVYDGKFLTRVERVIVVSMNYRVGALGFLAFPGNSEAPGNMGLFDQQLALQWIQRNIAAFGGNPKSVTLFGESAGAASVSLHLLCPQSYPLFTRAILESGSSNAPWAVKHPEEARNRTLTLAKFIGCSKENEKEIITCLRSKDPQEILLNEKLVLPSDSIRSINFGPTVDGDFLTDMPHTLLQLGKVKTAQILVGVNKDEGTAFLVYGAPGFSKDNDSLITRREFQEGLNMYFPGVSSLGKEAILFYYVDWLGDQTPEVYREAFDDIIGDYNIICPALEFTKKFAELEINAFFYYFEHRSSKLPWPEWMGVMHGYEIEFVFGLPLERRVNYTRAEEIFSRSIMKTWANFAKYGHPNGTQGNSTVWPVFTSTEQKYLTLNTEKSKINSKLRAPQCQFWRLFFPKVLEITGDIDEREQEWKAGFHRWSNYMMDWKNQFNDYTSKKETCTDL

Row | Compound | butyrylcholinesterase inhibitory activity inhibition ratio (%) (butyrylcholinesterase) | acetylcholinesterase inhibitory activity inhibition ratio (%) (acetylcholinesterase) | IC50 (acetylcholinesterase)
1 | COc1cc2c(cc1OC)C(=O)C(CC1(F)CC3CCC(C1)N3Cc1ccc(F)cc1)C2 (centres unmarked) [DC45, 2-((3-fluoro-8-(4-fluorobenzyl)-8-azabicyclo[3.2.1]octan-3-yl)methyl)-5,6-dimethoxy-2,3-dihydro-1H-inden-1-one] | 82.56% | 97.19% | 
2 | COc1cc2c(cc1OC)C(=O)C(CC1(F)CC3CCC(C1)N3Cc1ccc(C(C)(C)C)cc1)C2 (centres unmarked) [DC47, 2-((8-(4-(tert-butyl)benzyl)-3-fluoro-8-azabicyclo[3.2.1]octan-3-yl)methyl)-5,6-dimethoxy-2,3-dihydro-1H-inden-1-one] | 7.63% | 75.33% | 
3 | COC(=O)c1ccc(CN2C3CCC2CC(F)(CC2Cc4cc(OC)c(OC)cc4C2=O)C3)cc1 (centres unmarked) [DC50, methyl 4-((3-((5,6-dimethoxy-1-oxo-2,3-dihydro-1H-inden-2-yl)methyl)-3-fluoro-8-azabicyclo[3.2.1]octan-8-yl)methyl)benzoate] | 0.00% | 83.75% | 
4 | COc1cc2c(cc1OC)C(=O)C(CC1(F)CC3CCC(C1)N3Cc1cccc(Br)c1)C2 (centres unmarked) [DC51, 2-((8-(3-bromobenzyl)-3-fluoro-8-azabicyclo[3.2.1]octan-3-yl)methyl)-5,6-dimethoxy-2,3-dihydro-1H-inden-1-one] | 15.26% | 85.08% | 
5 | COc1cc2c(cc1OC)C(=O)C(CC1(F)CC3CCC(C1)N3Cc1ccccc1[N+](=O)[O-])C2 (centres unmarked) [DC52, 2-((3-fluoro-8-(2-nitrobenzyl)-8-azabicyclo[3.2.1]octan-3-yl)methyl)-5,6-dimethoxy-2,3-dihydro-1H-inden-1-one] | 0.73% | 93.80% | 
6 | COc1cc2c(cc1OC)C(=O)C(CC1(F)CC3CCC(C1)N3Cc1cc(F)c(F)cc1F)C2 (centres unmarked) [DC57, 2-((3-fluoro-8-(2,4,5-trifluorobenzyl)-8-azabicyclo[3.2.1]octan-3-yl)methyl)-5,6-dimethoxy-2,3-dihydro-1H-inden-1-one] | 1017% | 96.75% | 
7 | COc1cc2c(cc1OC)C(=O)C(CC1(F)CC3CCC(C1)N3Cc1ccccc1)C2 (centres unmarked) [DC59, 2-((8-benzyl-3-fluoro-8-azabicyclo[3.2.1]octan-3-yl)methyl)-5,6-dimethoxy-2,3-dihydro-1H-inden-1-one] | 69.03% | 86.12% | 
8 | COc1cc2c(cc1OC)C(=O)C(CC1(F)CC3CCC(C1)N3Cc1ccccc1F)C2 (centres unmarked) [DC60, 2-((3-fluoro-8-(2-fluorobenzyl)-8-azabicyclo[3.2.1]octan-3-yl)methyl)-5,6-dimethoxy-2,3-dihydro-1H-inden-1-one] | 64.31% | 95.13% | 
9 | COc1cc2c(cc1OC)C(=O)C(CC1(F)CC3CCC(C1)N3Cc1cccc(F)c1)C2 (centres unmarked) [DC61, 2-((3-fluoro-8-(3-fluorobenzyl)-8-azabicyclo[3.2.1]octan-3-yl)methyl)-5,6-dimethoxy-2,3-dihydro-1H-inden-1-one] | 61.04% | 96.75% | 
10 | COc1cc2c(cc1OC)C(=O)C(CC1(F)CC3CCC(C1)N3Cc1c(F)c(F)c(F)c(F)c1F)C2 (centres unmarked) [DC68, 2-((3-fluoro-8-((perfluorophenyl)methyl)-8-azabicyclo[3.2.1]octan-3-yl)methyl)-5,6-dimethoxy-2,3-dihydro-1H-inden-1-one] | 4.0% | 93.80% | 
11 | COc1cc2c(cc1OC)C(=O)C(CC1(F)CC3CCC(C1)N3Cc1cccc(C)c1)C2 (centres unmarked) [DC69, 2-((3-fluoro-8-(3-methylbenzyl)-8-azabicyclo[3.2.1]octan-3-yl)methyl)-5,6-dimethoxy-2,3-dihydro-1H-inden-1-one] | 58.86% | 97.49% | 
12 | COc1cc2c(cc1OC)C(=O)C(CC1(F)CC3CCC(C1)N3Cc1cccc(C(F)(F)F)c1)C2 (centres unmarked) [DC70, 2-((3-fluoro-8-(3-(trifluoromethyl)benzyl)-8-azabicyclo[3.2.1]octan-3-yl)methyl)-5,6-dimethoxy-2,3-dihydro-1H-inden-1-one] | 0.09% | 76.51% | 
13 | COc1cc2c(cc1OC)C(=O)C(CC1(F)CC3CCC(C1)N3Cc1cc(F)cc(F)c1F)C2 (centres unmarked) [DC75, 2-((3-fluoro-8-(2,3,5-trifluorobenzyl)-8-azabicyclo[3.2.1]octan-3-yl)methyl)-5,6-dimethoxy-2,3-dihydro-1H-inden-1-one] | 13.53% | 72.53% | 
14 | CCOc1cc2c(cc1OCC)C(=O)C(CC1(F)CCN(Cc3ccccc3F)CC1)C2 (centres unmarked) [DC77, 5,6-diethoxy-2-((4-fluoro-1-(2-fluorobenzyl)piperidin-4-yl)methyl)-2,3-dihydro-1H-inden-1-one] | 72.0% | 97.09% | 0.9 nM
15 | CCCOc1cc2c(cc1OCCC)C(=O)C(CC1(F)CCN(Cc3ccccc3F)CC1)C2 (centres unmarked) [DC78, 2-((4-fluoro-1-(2-fluorobenzyl)piperidin-4-yl)methyl)-5,6-dipropoxy-2,3-dihydro-1H-inden-1-one] | 71.0% | 95.04% | 0.96 nM
16 | CCOCOc1cc2c(cc1OCOCC)C(=O)C(CC1(F)CCN(Cc3ccccc3F)CC1)C2 (centres unmarked) [DC79, 5,6-bis(ethoxymethoxy)-2-((4-fluoro-1-(2-fluorobenzyl)piperidin-4-yl)methyl)-2,3-dihydro-1H-inden-1-one] | 75.0% | 93.05% | 1.86 nM
17 | O=C1c2cc(OCC(F)(F)F)c(OCC(F)(F)F)cc2CC1CC1(F)CCN(Cc2ccccc2F)CC1 (centres unmarked) [DC103, 2-((4-fluoro-1-(2-fluorobenzyl)piperidin-4-yl)methyl)-5,6-bis(2,2,2-trifluoroethoxy)-2,3-dihydro-1H-inden-1-one] | 70.0% | 92.04% | 0.86 nM
18 | O=C1c2cc(OC(F)F)c(OC(F)F)cc2CC1CC1(F)CCN(Cc2ccccc2F)CC1 (centres unmarked) [DC104, 5,6-bis(difluoromethoxy)-2-((4-fluoro-1-(2-fluorobenzyl)piperidin-4-yl)methyl)-2,3-dihydro-1H-inden-1-one] | 71.8% | 98.02% | 0.76 nM
19 | O=C1c2cc(OCC(F)F)c(OCC(F)F)cc2CC1CC1(F)CCN(Cc2ccccc2F)CC1 (centres unmarked) [DC105, 5,6-bis(2,2-difluoroethoxy)-2-((4-fluoro-1-(2-fluorobenzyl)piperidin-4-yl)methyl)-2,3-dihydro-1H-inden-1-one] | 61.5% | 98.14% | 0.99 nM
20 | O=C1c2cc(Cl)c(Cl)cc2CC1CC1(F)CCN(Cc2ccccc2F)CC1 (centres unmarked) [DC106, 5,6-dichloro-2-((4-fluoro-1-(2-fluorobenzyl)piperidin-4-yl)methyl)-2,3-dihydro-1H-inden-1-one] | 88.0% | 70.05% | 500 nM
21 | COC(=O)C1CC(F)(CC2Cc3cc(OC)c(OC)cc3C2=O)CCN1Cc1ccccc1F (centres unmarked) [DC107, methyl 4-((5,6-dimethoxy-1-oxo-2,3-dihydro-1H-inden-2-yl)methyl)-4-fluoro-1-(2-fluorobenzyl)piperidine-2-carboxylate] | 75.6% | 76.03% | 23 nM
